Earlier results, collected in US5741805A, “Controlled release pilocarpine delivery system” (OraMed, Inc., priority 1995, dated 1998).

Test system: xerostomia
Settings: 5 mg capsules or tablets three to four times a day

For `CC[C@@H]1C(=O)OC[C@@H]1Cc1cncn1C` [Pilocarpine, pilocarpine], the salivary function is listed as “marked improvement” and the side effects is listed as “numerous side effects”.
